Laboratory results reported in patent US11168083B2, “Inhibitors of Plasma Kallikrein and uses thereof” (Takeda Pharmaceutical Company Limited, priority 2017, dated 2021).

The molecules below were run against human activated kallikrein enzyme (Homo sapiens (Human), UniProt P03952) (assay: Inhibition of human activated kallikrein enzyme, fluorogenic peptide substrate assay (two formats)). Settings: Table 2; column head prints nM, ranges defined in μM; read-out: pKal EC50.
Assay type: biochemical
Description: The example compounds were evaluated for inhibition of the human activated kallikrein enzyme in two formats of an assay employing a fluorogenic peptide substrate. In one assay format, the concentrations of reagents were as follows: 20 mM Tris pH 7.5, 1 mM EDTA, 150 mM sodium chloride, 0.1% PEG-400, 0.1% Triton X-100, 500 pM activated kallikrein enzyme, 300 uM Pro-Phe-Arg-7-amido-4-methylcoumarin substrate. Prior to reaction initiation with substrate, enzyme and inhibitors were preincubated for 30 min at room temperature. After initiation with substrate, reactions were incubated for 10 min at room temperature and fluorescence emission at 460 nm from 380 nm excitation measured with a microplate reader. In another assay format, the concentrations of reagents were as follows: 20 mM Tris pH 7.5, 1 mM EDTA, 150 mM sodium chloride, 0.1% PEG-400, 0.1% Triton X-100, 5 pM activated kallikrein enzyme, 300 uM Pro-Phe-Arg-7-amido-4-methylcoumarin substrate. Prior to reaction initiation with substrate, enzyme and inhibitors were preincubated for 30 min at room temperature. After initiation with substrate, reactions were incubated for 18 hr at room temperature and fluorescence emission at 460 nm from 380 nm excitation measured with a microplate reader.

Sequence of human activated kallikrein enzyme (P03952 391-638): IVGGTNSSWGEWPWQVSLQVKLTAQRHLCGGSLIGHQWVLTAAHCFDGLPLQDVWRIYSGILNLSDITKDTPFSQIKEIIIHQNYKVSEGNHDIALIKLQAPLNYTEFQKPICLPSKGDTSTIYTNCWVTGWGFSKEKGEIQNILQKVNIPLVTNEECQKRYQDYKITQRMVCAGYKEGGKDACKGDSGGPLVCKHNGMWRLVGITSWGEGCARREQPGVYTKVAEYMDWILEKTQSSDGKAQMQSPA
Sequence of human activated kallikrein enzyme (P03952 20-390 partner): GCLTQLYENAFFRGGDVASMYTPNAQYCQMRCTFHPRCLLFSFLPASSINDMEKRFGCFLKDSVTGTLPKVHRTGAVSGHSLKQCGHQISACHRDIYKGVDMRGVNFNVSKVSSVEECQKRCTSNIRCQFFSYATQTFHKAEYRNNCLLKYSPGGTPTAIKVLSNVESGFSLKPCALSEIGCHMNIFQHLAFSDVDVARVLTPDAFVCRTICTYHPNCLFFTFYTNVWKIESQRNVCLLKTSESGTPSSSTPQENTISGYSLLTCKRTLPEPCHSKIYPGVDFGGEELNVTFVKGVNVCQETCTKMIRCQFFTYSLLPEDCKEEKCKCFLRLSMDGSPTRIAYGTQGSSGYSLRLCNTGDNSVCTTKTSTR

Row | SMILES | EC50 [nM]
1 | CNC(=O)[C@H](CCCCNC(C)=O)NC(=O)c1csc([C@@H]2C[C@@H](N)CN2C(=O)c2cn3cc(Cl)ccc3n2)n1 [Compound 26, N—((S)-6-acetamido-1-(methylamino)-1-oxohexan-2-yl)-2-((2S,4R)-4-amino-1-(6-chloroimidazo[1,2-a]pyridine-2-carbonyl)pyrrolidin-2-yl)thiazole-4-carboxamide] | > 9900
2 | CNC(=O)[C@H](CCCCNC(N)=O)NC(=O)c1csc([C@@H]2C[C@@H](N)CN2C(=O)c2cn3cc(Cl)ccc3n2)n1 [Compound 27, 2-((2S,4R)-4-amino-1-(6-chloroimidazo[1,2-a]pyridine-2-carbonyl)pyrrolidin-2-yl)-N—((S)-1-(methylamino)-1-oxo-6-ureidohexan-2-yl)thiazole-4-carboxamide] | > 9900
3 | CNC(=O)[C@H](CCCNC(=N)N)NC(=O)c1csc([C@@H]2C[C@@H](N)CN2C(=O)c2cn3cc(Cl)ccc3n2)n1 [Compound 28, 2-((2S,4R)-4-amino-1-(6-chloroimidazo[1,2-a]pyridine-2-carbonyl)pyrrolidin-2-yl)-N—((S)-5-guanidino-1-(methylamino)-1-oxopentan-2-yl)thiazole-4-carboxamide] | 5000 to 9900
4 | CNC(=O)[C@H](CCC(N)=O)NC(=O)c1csc([C@@H]2C[C@@H](N)CN2C(=O)c2cn3cc(Cl)ccc3n2)n1 [Compound 29, (S)-2-(2-((2S,4R)-4-amino-1-(6-chloroimidazo[1,2-a]pyridine-2-carbonyl)pyrrolidin-2-yl)thiazole-4-carboxamido)-N1-methylpentanediamide] | > 9900
5 | CNC(=O)[C@H](Cc1c[nH]cn1)NC(=O)c1csc([C@@H]2C[C@@H](N)CN2C(=O)c2cn3cc(Cl)ccc3n2)n1 [Compound 30, N—((S)-3-(1H-imidazol-4-yl)-1-(methylamino)-1-oxopropan-2-yl)-2-((2S,4R)-4-amino-1-(6-chloroimidazo[1,2-a]pyridine-2-carbonyl)pyrrolidin-2-yl)thiazole-4-carboxamide] | > 9900
6 | CNC(=O)[C@H](Cc1c[nH]c2ccccc12)NC(=O)c1csc([C@@H]2C[C@@H](N)CN2C(=O)c2cn3cc(Cl)ccc3n2)n1 [Compound 31, N—((S)-3-(1H-indol-3-yl)-1-(methylamino)-1-oxopropan-2-yl)-2-((2S,4R)-4-amino-1-(6-chloroimidazo[1,2-a]pyridine-2-carbonyl)pyrrolidin-2-yl)thiazole-4-carboxamide] | > 9900
7 | CNC(=O)[C@H](Cc1ccc(O)cc1)NC(=O)c1csc([C@@H]2C[C@@H](N)CN2C(=O)c2cn3cc(Cl)ccc3n2)n1 [Compound 32, 2-((2S,4R)-4-amino-1-(6-chloroimidazo[1,2-a]pyridine-2-carbonyl)pyrrolidin-2-yl)-N—((S)-3-(4-hydroxyphenyl)-1-(methylamino)-1-oxopropan-2-yl)thiazole-4-carboxamide] | > 9900
8 | CNC(=O)[C@@H](CCCCNC(=N)N)NC(=O)c1csc([C@@H]2CCCN2C(=O)c2cn3cc(Cl)ccc3n2)n1 [Compound 34, 2-((S)-1-(6-Chloroimidazo[1,2-a]pyridine-2-carbonyl)pyrrolidin-2-yl)-N—((R)-6-guanidino-1-(methylamino)-1-oxohexan-2-yl)thiazole-4-carboxamide] | > 9900
9 | CNC(=O)[C@H](CCCCNC(=N)N)NC(=O)c1csc([C@@H]2C[C@@H](NC(C)=O)CN2C(=O)c2cn3cc(Cl)ccc3n2)n1 [Compound 35, 2-((2S,4R)-4-acetamido-1-(6-chloroimidazo[1,2-a]pyridine-2-carbonyl)pyrrolidin-2-yl)-N—((S)-6-guanidino-1-(methylamino)-1-oxohexan-2-yl)thiazole-4-carboxamide] | 1000 to 5000
10 | CNC(=O)[C@H](CCCCNC(=N)N)NC(=O)c1csc([C@@H]2C[C@H](N)CN2C(=O)c2cn3cc(Cl)ccc3n2)n1 [Compound 36, 2-((2S,4S)-4-amino-1-(6-chloroimidazo[1,2-a]pyridine-2-carbonyl)pyrrolidin-2-yl)-N—((S)-6-guanidino-1-(methylamino)-1-oxohexan-2-yl)thiazole-4-carboxamide] | ≤ 100
11 | CNC(=O)[C@H](CCCCNC(=N)N)NC(=O)c1csc([C@@H]2C[C@H](O)CN2C(=O)c2cn3cc(Cl)ccc3n2)n1 [Compound 37, 2-((2S,4S)-1-(6-Chloroimidazo[1,2-a]pyridine-2-carbonyl)-4-hydroxypyrrolidin-2-yl)-N—((S)-6-guanidino-1-(methylamino)-1-oxohexan-2-yl)thiazole-4-carboxamide] | 1000 to 5000
12 | CNC(=O)[C@H](CCCCNC(=N)N)NC(=O)c1csc([C@@H]2C[C@@H](O)CN2C(=O)c2cn3cc(Cl)ccc3n2)n1 [Compound 38, 2-((2S,4R)-1-(6-Chloroimidazo[1,2-a]pyridine-2-carbonyl)-4-hydroxypyrrolidin-2-yl)-N—((S)-6-guanidino-1-(methylamino)-1-oxohexan-2-yl)thiazole-4-carboxamide] | > 9900
13 | CNC(=O)[C@@H](CCCCNC(=N)N)NC(=O)c1csc([C@@H]2C[C@@H](O)CN2C(=O)c2cn3cc(Cl)ccc3n2)n1 [Compound 39, 2-((2S,4R)-1-(6-Chloroimidazo[1,2-a]pyridine-2-carbonyl)-4-hydroxypyrrolidin-2-yl)-N—((R)-6-guanidino-1-(methylamino)-1-oxohexan-2-yl)thiazole-4-carboxamide] | 5000 to 9900
14 | CNC(=O)[C@H](CCCCNC(=N)N)NC(=O)c1csc([C@@H]2C[C@@H](N)CN2C(=O)c2ccc3ccccc3c2)n1 [Compound 40, 2-((2S,4R)-1-(2-naphthoyl)-4-aminopyrrolidin-2-yl)-N—((S)-6-guanidino-1-(methylamino)-1-oxohexan-2-yl)thiazole-4-carboxamide] | 1000 to 5000
15 | CNC(=O)[C@H](CCCCNC(=N)N)NC(=O)c1csc([C@@H]2C[C@@H](N)CN2C(=O)c2ccc3ncc(Cl)cc3c2)n1 [Compound 41, 2-((2S,4R)-4-amino-1-(3-chloroquinoline-6-carbonyl)pyrrolidin-2-yl)-N—((S)-6-guanidino-1-(methylamino)-1-oxohexan-2-yl)thiazole-4-carboxamide] | 100 to 1000
16 | CNC(=O)[C@H](CCCCNC(=N)N)NC(=O)c1csc([C@@H]2C[C@@H](N)CN2C(=O)c2ccc3c(Cl)csc3c2)n1 [Compound 43, 2-((2S,4R)-4-amino-1-(3-chlorobenzo[b]thiophene-6-carbonyl)pyrrolidin-2-yl)-N—((S)-6-guanidino-1-(methylamino)-1-oxohexan-2-yl)thiazole-4-carboxamide] | 5000 to 9900
17 | CNC(=O)[C@H](CCCCNC(=N)N)NC(=O)c1csc([C@@H]2C[C@@H](N)CN2C(=O)c2cc3cc(Cl)ccc3s2)n1 [Compound 44, 2-((2S,4R)-4-amino-1-(5-chlorobenzo[b]thiophene-2-carbonyl)pyrrolidin-2-yl)-N—((S)-6-guanidino-1-(methylamino)-1-oxohexan-2-yl)thiazole-4-carboxamide] | 100 to 1000
18 | CNC(=O)[C@H](CCCCNC(=N)N)NC(=O)c1csc([C@@H]2C[C@@H](N)CN2C(=O)c2nc3cc(Cl)ccc3s2)n1 [Compound 45, 2-((2S,4R)-4-amino-1-(5-chlorobenzo[d]thiazole-2-carbonyl)pyrrolidin-2-yl)-N—((S)-6-guanidino-1-(methylamino)-1-oxohexan-2-yl)thiazole-4-carboxamide] | ≤ 100
